From US20100120690A1, “Polypeptides Having Antimicrobial Activity and Polynucleotides Encoding Same” (Novozymes Adenium Biotech A/S, priority 2005, published 2010)

Legend:
Type in all cases: cell-based
[1] = test system: Staphylococcus carnosus; experiment: TAPS (Trans Acting Peptide System) assay, radial diffusion read-out; parameters: key: classified as 4>3>2>1; whereas 4 is better than 1; classified as 4>3>2>1; classified as 4>3>2>1; wildtype activity corresponds to 1; conditions: peptide expressed in E. coli
Method: A range of antimicrobial polypeptides, which are variants of SEQ ID NO: 1, were tested in the TAPS assay. TAPS may be used to identify new or improved genes encoding peptides that can kill or inhibit the growth of target cells (see PCT application WO 2004/033715). The TAPS assay, an acronym for Trans Acting Peptide System, is based on having a sensitive host producing a peptide followed by screening for its activity in trans against an indicator strain. The advantage of this system is based on that the antimicrobial peptide is expressed in the Gram-negative bacterium E. coli and its antimicrobial activity can be monitored on different microbes including Gram-negatives, positives or fungi. Additionally, TAPS offers the possibility to produce correctly folded AMPs containing disulfide bonds in the host cells, thereby retaining their antimicrobial activities.
The TAPS approach requires first, that expression of the peptide is under control of an inducible promoter with tight regulation, because the host cells are sensitive to the peptide when producing it. Secondly, the produced peptide has to be released to the media so that it can interact with the target organism.
The TAPS screening can be carried out either in solid or liquid media. On solid media, a plasmid library is initially introduced into E. coli host cells. […] In the next step, the filter containing the colonies is transferred to LB growth medium containing inducer (0.1% arabinose) to permit peptide synthesis. Subsequently, the target strain, for example S. carnosus, is overlaid onto the plate and allowed to grow for 12-16 hours at 37° C. Finally, visual inspection of the host cells capable of reducing the proliferation of the target cells is performed and the nucleotide sequence encoding for the antimicrobial peptide is recovered from the host cells. DNA sequence analysis of the variants is obtained to elucidate the nature of the peptide.
As mentioned above, the TAPS screening can also be performed using liquid medium. This procedure requires the use of robotics to analyze large number of clones. In this system, the host E. coli origami cells are transformed with the plasmid library and plated out on LB medium+0.2% glucose+ampicillin (200 mg/L). Independent colonies are then inoculated into 96 or 384-well plates containing 200 micro-L of TB medium+ampicillin (200 mg/L) and cultured overnight at 37° C. These cultures are then replicated robotically and grown to exponential phase until inducer (0.1% arabinose) is added to trigger peptide synthesis. The next step consists in hydrolyzing the cells such that the peptide is released to the media by hot acid hydrolysis. This treatment consists on adding 1 M sodium Phosphate buffer pH 2.3 to obtain a final pH approximately of 2.3 and incubating the cultures overnight at 80° C. Next day, a 25 micro-L aliquot of the hydrolyzed cultures is used to perform an activity test against the desired target organisms. The activity test performed was a Radial Diffusion Assay (RDA) where an aliquot of the hydrolyzed cultures was added to the agarose media inoculated with the target strain, S. carnosus. […] Measurements of the diameter of the clearing zones were performed to quantify the potency of the antimicrobial activity of the peptides.
The antimicrobial activity (against Staphylococcus carnosus) of the tested plectasin variants, which was measured using the TAPS assay, is shown in table 3. The antimicrobial activity corresponds to the clearing zone size and has been classified as 4>3>2>1; whereas 4 is better than 1, and wildtype activity corresponds to 1.

[2] = test system: panel of 6 different strains of Staphylococcus aureus; experiment: Average MIC, NCCLS/CLSI guidelines using caMHB (Example 6); conditions: average over 6 S. aureus strains, duplicate; MIC above 32 counted as 64; read after 18-24 hours at 37° C.
How it was run: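 Six Staphylococcus aureus strains, MSSA and MRSA, were exposed in duplicate to peptide dilutions from 32 down to 0.03 microgram/mL in caMHB following CLSI guidance. Growth was scored after 18-24 h incubation at 37° C. The tabulated value is the mean MIC, with 64 used for any MIC >32 micrograms/mL.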

[3] = test system: Staphylococcus carnosus ATCC51365; experiment: Yeast screening assay: radial diffusion assay of yeast supernatants; parameters: key: An activity of 3 is better than Plectasin; An activity of 2 corresponds to the activity of Plectasin; 1 is worse than Plectasin; conditions: yeast supernatant, clearing zone in radial diffusion assay
How it was run: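 Activity scores (1 worse, 2 equal, 3 better than wild-type plectasin) come from the size of the radial-diffusion clearing zone against S. carnosus at 5×10^5 cfu/mL. Test samples were culture supernatants of yeast transformants induced with galactose for 3 days at 30 °C, and plates were developed at 37 °C with MTT.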

[4] = test system: Staphylococcus aureus, MRSA ST80 (2003); experiment: MIC, NCCLS/CLSI guidelines (Example 5), strain E; conditions: relative to wildtype Plectasin; average of two independent experiments
Method: (§1) Plectasin wild-type (SEQ ID NO: 1) and several variants of Plectasin were expressed and purified. The Minimal Inhibitory Concentration (MIC) was determined to test for their antimicrobial activity following the NCCLS guidelines from CLSI (Clinical and Laboratory Standards Institute; formerly known as National Committee for Clinical and Laboratory Standards).
(§2) The peptides were tested against the following strains: • A: Staphylococcus aureus, ATCC 29213; • B: Staphylococcus aureus, ATCC 25923; • C: Staphylococcus aureus, ATCC 29737; • D: Staphylococcus aureus, MRSA ST5 (2001), multi-resistant clinical human isolate from Statens Serum Institut, Denmark; • E: Staphylococcus aureus, MRSA ST80 (2003), multi-resistant clinical human isolate from Statens Serum Institut, Denmark.
(§3) All MIC values represent an average of two independent experiments; and all results in Table 5 are expressed relative to wildtype Plectasin:
(§4) 0: >100% of Plectasin wildtype MIC; 1: 80-100% of Plectasin wildtype MIC; 2: 50-80% of Plectasin wildtype MIC; 3: <50% of Plectasin wildtype MIC.

[5] = test system: Staphylococcus aureus, MRSA ST5 (2001); experiment: MIC, NCCLS/CLSI guidelines (Example 5), strain D; conditions: relative to wildtype Plectasin; average of two independent experiments
Method: as §1, §2, §3, §4

[6] = test system: Staphylococcus aureus, ATCC 29213; experiment: MIC, NCCLS/CLSI guidelines (Example 5), strain A; conditions: relative to wildtype Plectasin; average of two independent experiments
Method: as §1, §2, §3, §4

[7] = test system: Staphylococcus aureus, ATCC 25923; experiment: MIC, NCCLS/CLSI guidelines (Example 5), strain B; conditions: relative to wildtype Plectasin; average of two independent experiments
Method: as §1, §2, §3, §4

[8] = test system: Staphylococcus aureus, ATCC 29737; experiment: MIC, NCCLS/CLSI guidelines (Example 5), strain C; conditions: relative to wildtype Plectasin; average of two independent experiments
Method: as §1, §2, §3, §4

Sequence: GFGCNGPWDEDDMQCHIHCKSIKGYKGGYCAKGGFVCKCY [Mutation N17I]
- Activity (antimicrobial activity, clearing zone size) [1]: 2
- Average MIC [2]: 14 micrograms/mL

Sequence: GFGCNGPWDEDDKQCHRHCKSIKGYKGGYCAKGGFVCKCYR [M13K + N17R + Y40YR]
- Activity (antimicrobial activity, clearing zone size) [1]: 3
- Average MIC [2]: 8 micrograms/mL

Sequence: GFGCNGPWDEDDMQCHRHCKSIKGYKGGYCAKGGFVCKCYR [N17R + Y40YR]
- Activity (antimicrobial activity, clearing zone size) [1]: 3

Sequence: GFGCNGPWDEDDMQCHNHCKFIKGYKGGYCTKGGFVCKCY [S21F + A31T]
- Activity (antimicrobial activity, clearing zone size) [1]: 2

Sequence: GFGCNGPWDEDDMRCHNHCKSIKGYKGGYCAKGGFICKCY [Q14R + V36I]
- Activity (antimicrobial activity, clearing zone size) [1]: 4

Sequence: GFGCNGPWDEDDMQCHNHCRSIKGYKGGYCAKGGFVCKCY [Mutation K20R]
- Activity (antimicrobial activity, clearing zone size) [1]: 2

Sequence: GFGCKGPWDEDDMQCHNHCKSIKGYKGGYCAKGGFVCKCY [Mutation N5K]
- Activity (antimicrobial activity, clearing zone size) [1]: 2
- Average MIC [2]: 12 micrograms/mL

Sequence: GFGCNGPWDEDDKQCHNHCKSIKGYRGGYCAKGGFVCKCY [M13K + K26R]
- Activity (antimicrobial activity, clearing zone size) [1]: 4
- Average MIC [2]: 10 micrograms/mL

Sequence: GFGCNGPWDEDDMRCHNHCKSIRGYRGGYCAKGGFVCKCY [Q14R + K23R + K26R]
- Activity (antimicrobial activity relative to the activity of plectasin) [3]: 2
- Relative MIC, strain E [4]: 3 (<50% of Plectasin wildtype MIC)
- Relative MIC, strain D [5]: 3 (<50% of Plectasin wildtype MIC)
- Relative MIC, strain A [6]: 3 (<50% of Plectasin wildtype MIC)
- Relative MIC, strain B [7]: 3 (<50% of Plectasin wildtype MIC)
- Relative MIC, strain C [8]: 3 (<50% of Plectasin wildtype MIC)
- Average MIC [2]: 2 micrograms/mL

Sequence: GFGCRGPWDEDDMQCHNHCKSIKGYKGGYCAKGGFVCKCY [Mutation N5R]
- Activity (antimicrobial activity relative to the activity of plectasin) [3]: 3
- Relative MIC, strain E [4]: 2 (50-80% of Plectasin wildtype MIC)
- Relative MIC, strain D [5]: 2 (50-80% of Plectasin wildtype MIC)
- Relative MIC, strain A [6]: 1 (80-100% of Plectasin wildtype MIC)
- Relative MIC, strain B [7]: 2 (50-80% of Plectasin wildtype MIC)
- Relative MIC, strain C [8]: 2 (50-80% of Plectasin wildtype MIC)
- Average MIC [2]: 8 micrograms/mL

Sequence: GFGCKGPWDEDDMQCHNHCKSIKGYRGGYCAKGGFVCKCY [N5K + K26R]
- Activity (antimicrobial activity relative to the activity of plectasin) [3]: 3
- Relative MIC, strain E [4]: 2 (50-80% of Plectasin wildtype MIC)
- Relative MIC, strain D [5]: 2 (50-80% of Plectasin wildtype MIC)
- Relative MIC, strain A [6]: 1 (80-100% of Plectasin wildtype MIC)
- Relative MIC, strain B [7]: 2 (50-80% of Plectasin wildtype MIC)
- Relative MIC, strain C [8]: 3 (<50% of Plectasin wildtype MIC)
- Average MIC [2]: 9 micrograms/mL

Sequence: GFGCNGPWDEDDMQCHHHCKSIKGYKGGYCAKGGFVCKCY [Mutation N17H]
- Activity (antimicrobial activity, clearing zone size) [1]: 4

Sequence: GFGCYGPWDEDDMQCHNHCKSIKGYKGGYCAKGGFVCKCY [Mutation N5Y]
- Activity (antimicrobial activity, clearing zone size) [1]: 2

Sequence: GFGCNGPWDEDDMRCHNHCKSIKGYKGGYCAKGGFVCKCYR [Q14R + Y40YR]
- Activity (antimicrobial activity, clearing zone size) [1]: 3

Sequence: GFGCNGPWDEDDMRCHNHCKSIKGYRGGYCAKGGFVCRCY [Q14R + K26R + K38R]
- Activity (antimicrobial activity relative to the activity of plectasin) [3]: 3
- Relative MIC, strain E [4]: 3 (<50% of Plectasin wildtype MIC)
- Relative MIC, strain D [5]: 3 (<50% of Plectasin wildtype MIC)
- Relative MIC, strain A [6]: 3 (<50% of Plectasin wildtype MIC)
- Relative MIC, strain B [7]: 3 (<50% of Plectasin wildtype MIC)
- Relative MIC, strain C [8]: 3 (<50% of Plectasin wildtype MIC)
- Average MIC [2]: 2 micrograms/mL

Sequence: GFGCNGPWDEDDMLCHNHCKSIKGYKGGYCAKGGFVCKCY [Mutation Q14L]
- Activity (antimicrobial activity, clearing zone size) [1]: 4
- Average MIC [2]: 13 micrograms/mL

Sequence: GFGCNGPWDEDDMRCHNHCKSIKGYRGGYCAKGGFVCKCY [Q14R + K26R]
- Activity (antimicrobial activity, clearing zone size) [1]: 4
- Average MIC [2]: 5 micrograms/mL

Sequence: GFGCNGPWDEDDMRCHNHCRSIKGYKGGYCAKGGFVCKCY [Q14R + K20R]
- Activity (antimicrobial activity relative to the activity of plectasin) [3]: 2
- Relative MIC, strain E [4]: 3 (<50% of Plectasin wildtype MIC)
- Relative MIC, strain D [5]: 3 (<50% of Plectasin wildtype MIC)
- Relative MIC, strain A [6]: 3 (<50% of Plectasin wildtype MIC)
- Relative MIC, strain B [7]: 3 (<50% of Plectasin wildtype MIC)
- Relative MIC, strain C [8]: 3 (<50% of Plectasin wildtype MIC)
- Average MIC [2]: 3 micrograms/mL

Sequence: GFGCYGPWDEDDMLCHNHCKSIKGYKGGYCAKGGFVCKCY [N5Y + Q14L]
- Activity (antimicrobial activity, clearing zone size) [1]: 2

Sequence: GFGCNGPWDEGDKQCHNHCKSIKGYRGGYCAKGGFVCKCY [D11G + M13K + K26R]
- Activity (antimicrobial activity, clearing zone size) [1]: 3

Sequence: GFGCNGPWDEDDKQCHRHCKSIKGYKGGYCAKGGFVCKCY [M13K + N17R]
- Activity (antimicrobial activity, clearing zone size) [1]: 3

Sequence: GFGCNGPWDENDMQCHNHCKFIKGYKGGYCAKGGFVCKCY [D11N + S21F]
- Activity (antimicrobial activity, clearing zone size) [1]: 4

Sequence: GFGCNGPWDEDDKQCHNHCKSIKGYKGGYCAKGGFVCKCY [Mutation M13K]
- Activity (antimicrobial activity, clearing zone size) [1]: 3
- Average MIC [2]: 12 micrograms/mL

Sequence: GFGCNGPWDEGDMQCHNHCKSIKGYKGGYCARGGFVCKCY [D11G + K32R]
- Activity (antimicrobial activity relative to the activity of plectasin) [3]: 3
- Relative MIC, strain E [4]: 3 (<50% of Plectasin wildtype MIC)
- Relative MIC, strain D [5]: 2 (50-80% of Plectasin wildtype MIC)
- Relative MIC, strain A [6]: 1 (80-100% of Plectasin wildtype MIC)
- Relative MIC, strain B [7]: 3 (<50% of Plectasin wildtype MIC)
- Relative MIC, strain C [8]: 3 (<50% of Plectasin wildtype MIC)
- Average MIC [2]: 5 micrograms/mL

Sequence: GFGCNGPWGEDDMRCHNHCKSIRGYKGGYCAKGGFVCKCY [D9G + Q14R + K23R]
- Activity (antimicrobial activity relative to the activity of plectasin) [3]: 3
- Relative MIC, strain E [4]: 3 (<50% of Plectasin wildtype MIC)
- Relative MIC, strain D [5]: 3 (<50% of Plectasin wildtype MIC)
- Relative MIC, strain A [6]: 3 (<50% of Plectasin wildtype MIC)
- Relative MIC, strain B [7]: 3 (<50% of Plectasin wildtype MIC)
- Relative MIC, strain C [8]: 3 (<50% of Plectasin wildtype MIC)
- Average MIC [2]: 2 micrograms/mL
